The values that follow come from patent US20060147516A1, “Taste masking system for alprazolam” (CIMA LABS INC., priority 2005, published 2006).

This data set is described as follows: Solubility of alprazolam in ethanol (coating solvent). The conditions noted are these: at working concentrations in ethanol. The class given is physicochemical. How it is done:
The resulting particles were discreet, non-tacky and exceptionally workable. By working with various materials, and without wishing to be bound by a particular theory, it was determined that certain drugs react and/or interact with the polymer materials in the taste masking coating material, changing their individual characters rendering the material more tacky. The present invention intends to encompass only those active pharmaceutical ingredients that would not so adversely affect workability so as to prevent their effective use in forming discrete, preferably free flowing, well coated, well characterized solid supports, which may be further coated. Active pharmaceutical ingredients that may be used in addition to alprazolam in accordance with the present invention may include, without limitation, analgesics, anti-inflammatories, antipyretics, antibiotics, antimicrobials, anxiolytics, laxatives, anorexics, antihistamines, antidepressants, antiasthmatics, antidiuretics, antiflatuents, antimigraine agents, antispasmodics, sedatives, antihyperactives, antihypertensives, tranquilizers, decongestants, beta blockers, peptides, proteins, oligonucleotides and other substances of biological origin, and combinations thereof. Also contemplated are the drugs and pharmaceutically active ingredients described in Mantelle, U.S. Pat. No. 5,234,957, in columns 18 through 21. […]

Turning to `Cc1nnc2n1-c1ccc(Cl)cc1C(c1ccccc1)=NC2` [alprazolam], the solubility in ethanol entry was “sparingly soluble”.
